Patent US12433882B2, “Treatments for amyotrophic lateral sclerosis using dazucorilant” (Corcept Therapeutics Incorporated, priority 2022, dated 2025)

Key:
GR = molecular target: T1, GR (Homo sapiens, UniProt P04150); assay: GR binding (competitive, reversible); conditions: read-out: affinity for GR
T1 sequence (P04150 1-777): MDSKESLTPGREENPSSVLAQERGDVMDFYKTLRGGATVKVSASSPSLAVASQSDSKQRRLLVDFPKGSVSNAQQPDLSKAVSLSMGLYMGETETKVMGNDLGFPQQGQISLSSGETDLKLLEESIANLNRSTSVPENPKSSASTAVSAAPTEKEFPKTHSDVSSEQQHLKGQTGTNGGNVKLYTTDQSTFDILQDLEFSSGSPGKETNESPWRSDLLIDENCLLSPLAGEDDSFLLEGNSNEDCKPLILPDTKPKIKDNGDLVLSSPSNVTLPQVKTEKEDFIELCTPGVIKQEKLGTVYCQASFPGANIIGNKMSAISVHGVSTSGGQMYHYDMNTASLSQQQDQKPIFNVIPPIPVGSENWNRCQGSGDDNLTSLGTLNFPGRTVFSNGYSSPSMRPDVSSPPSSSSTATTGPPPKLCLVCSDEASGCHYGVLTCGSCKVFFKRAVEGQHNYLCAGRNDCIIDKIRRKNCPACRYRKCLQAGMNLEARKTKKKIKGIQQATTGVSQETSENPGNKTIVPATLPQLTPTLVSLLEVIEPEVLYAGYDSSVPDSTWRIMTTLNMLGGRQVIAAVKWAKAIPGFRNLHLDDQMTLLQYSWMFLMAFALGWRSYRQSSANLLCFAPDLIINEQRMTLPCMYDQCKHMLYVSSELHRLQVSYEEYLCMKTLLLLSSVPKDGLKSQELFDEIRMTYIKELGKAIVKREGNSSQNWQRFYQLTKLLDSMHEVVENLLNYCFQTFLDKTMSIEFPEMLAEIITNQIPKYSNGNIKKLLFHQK
Method: Dazucorilant is selective for GR over other nuclear hormone receptors, and a range of other receptors, enzymes, and ion channels. For example, dazucorilant has high selectivity for GR relative to the progesterone receptor (PR), androgen receptor, and estrogen receptor, showing no significant binding to these receptors at a concentration of 10 μM (0%, 1.5% and […], respectively).

[1] = molecular target: T2, progesterone receptor (PR) (Homo sapiens, UniProt P06401); assay: Progesterone receptor binding; conditions: 10 μM
T2 sequence (P06401 1-933): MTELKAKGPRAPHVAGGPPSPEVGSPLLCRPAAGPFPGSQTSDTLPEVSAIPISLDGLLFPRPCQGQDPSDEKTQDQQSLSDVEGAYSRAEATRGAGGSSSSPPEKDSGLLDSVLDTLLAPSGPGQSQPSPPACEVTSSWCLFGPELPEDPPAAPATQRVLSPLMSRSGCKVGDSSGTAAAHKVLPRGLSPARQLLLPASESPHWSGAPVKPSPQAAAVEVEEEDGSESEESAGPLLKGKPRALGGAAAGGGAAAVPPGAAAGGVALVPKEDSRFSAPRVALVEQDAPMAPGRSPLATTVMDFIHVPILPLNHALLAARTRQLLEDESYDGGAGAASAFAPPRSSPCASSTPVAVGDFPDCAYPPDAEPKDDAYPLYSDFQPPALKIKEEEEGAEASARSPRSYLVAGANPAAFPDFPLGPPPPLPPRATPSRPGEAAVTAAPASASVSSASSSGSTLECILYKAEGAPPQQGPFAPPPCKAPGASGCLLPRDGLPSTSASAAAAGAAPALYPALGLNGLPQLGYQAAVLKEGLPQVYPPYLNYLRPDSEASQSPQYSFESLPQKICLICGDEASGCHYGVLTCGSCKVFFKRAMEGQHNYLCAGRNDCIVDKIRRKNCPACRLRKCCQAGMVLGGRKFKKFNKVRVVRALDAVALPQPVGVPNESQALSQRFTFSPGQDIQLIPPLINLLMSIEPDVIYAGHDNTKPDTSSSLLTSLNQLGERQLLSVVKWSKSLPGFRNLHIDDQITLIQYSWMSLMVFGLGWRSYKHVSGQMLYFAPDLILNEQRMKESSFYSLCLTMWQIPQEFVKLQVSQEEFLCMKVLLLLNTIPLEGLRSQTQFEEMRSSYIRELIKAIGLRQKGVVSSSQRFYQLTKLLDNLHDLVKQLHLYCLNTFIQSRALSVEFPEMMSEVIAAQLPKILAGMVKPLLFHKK

[2] = Quantitative whole-body autoradiography (QWBA) study in rats; assay type: in vivo
Method: The in vivo distribution of dazucorilant was determined in a quantitative whole-body autoradiography (QWBA) study in rats. Following a single oral administration of ^14C-dazucorilant to male and female rats, radioactivity was steadily absorbed, with maximal tissue concentrations generally occurring at around 12 hours post-dose.

[3] = first 24 hours after dosing, single oral dose, rats

Compound: O=C(c1ccccn1)[C@]12Cc3cnn(-c4ccc(F)cc4)c3C=C1CCN(S(=O)(=O)c1ccc(C(F)(F)F)cc1)C2 [dazucorilant, (R)-(1-(4-fluorophenyl)-6-((4-(trifluoromethyl)phenyl)sulfonyl)-4,4a, 5,6,7,8-hexahydro-1-H-pyrazolo[3,4-g]isoquinolin-4a-yl) (pyridin-2-yl)methanone]
- Ki (GR): 0.28 nM
- binding to progesterone receptor [1]: 0%
- Tissue:blood ratio, brain [2, 3]: > 0.1
- Tissue:blood ratio, spinal cord [2, 3]: > 0.1
- time of maximal tissue concentrations of radioactivity ([2]; single oral administration, male and female rats, post-dose): around 12 hours
